Source: patent publication US9730445B2, “Herbicidal compositions comprising 4-amino-3-chloro-5-fluoro-6-(4-chloro-2-fluoro-3-methoxyphenyl) pyridine-2-carboxylic acid or a derivative thereof and fungicides” (DOW AGROSCIENCES LLC, priority 2013, dated 2017)

Tests used:
Experiment in all cases: Postemergence foliar-applied weed control, direct-seeded rice (greenhouse)
ECHOR = assay type: in vivo, Echinochloa oryzoides (Ard.) Fritsch (early watergrass); settings: r78-80 ester 8/16/32 g ae/ha alone, r81-83 difenoconazole 50/100/200 g ai/ha alone, r84-92 ester 8/16/32 at each of 50, 100, 200
Description: (§1) Seeds or nutlets of the desired test plant species were planted in a soil matrix prepared by mixing aloam or sandy loam soil (e.g., 28.6 percent silt, 18.8 percent clay, and 52.6 percent sand, with a pH of about 5.8 and an organic matter content of about 1.8 percent) and calcareous grit in an 80 to 20 ratio. The soil matrix was contained in plastic pots with a volume of 1 quart and a surface area of 83.6 square centimeters (cm^2). […] The plants were grown for 8-22 days in a greenhouse with an approximate 14 hour (h) photoperiod which was maintained at about 29° C. during the day and 26° C. during the night. Nutrients (Peters Excel® 15-5-15 5-Ca 2-Mg and iron chelate) were applied in the irrigation solution as needed and water was added on a regular basis. Supplemental lighting was provided with overhead metal halide 1000-Watt lamps as necessary. The plants were employed for testing when they reached the first through fourth true leaf stage.
(§2) Treatments consisted of the acid or esters of 4-amino-3-chloro-5-fluoro-6-(4-chloro-2-fluoro-3-methoxy-phenyl)pyridine-2-carboxylic acid (Compound A), each formulated as an SC (suspension concentrate), and various fungicidal components alone and in combination. Forms of compound A were applied on an acid equivalent basis.
For treatments comprised of formulated compounds, measured amounts of compounds were placed individually in 25 mL glass vials and diluted in a volume of 1.25% volume per volume (v/v) Agri-Dex® crop oil concentrate to obtain 12× stock solutions. […]
(§3) The treated plants and control plants were placed in a greenhouse as described above and watered by sub-irrigation to prevent wash-off of the test compounds. After approximately 3 weeks, the condition of the test plants as compared with that of the untreated plants was determined visually and scored on a scale of 0 to 100 percent where 0 corresponds to no injury or growth inhibition and 100 corresponds to complete kill. […]

LEFCH = assay type: in vivo, Leptochloa chinensis (L.) Nees (Chinese sprangletop); settings: 21 DAA
Description: as §1, §2
(§4) For treatments comprised of formulated compounds, measured amounts of compounds were placed individually in 25 mL glass vials and diluted in a volume of 1.25% volume per volume (v/v) Agri-Dex® crop oil concentrate to obtain 12× stock solutions. […] Application solutions were prepared by adding an appropriate amount of each stock solution (e.g., 1 mL) and diluted to the appropriate final concentrations with the addition of […] of an aqueous mixture of 1.25% (v/v) crop oil concentrate so that the final spray solutions contained 1.25+/−0.05% (v/v) crop oil concentrate.
(§5) For treatments comprised of technical compounds, weighed amounts can be placed individually in 25 mL glass vials and dissolved in a volume of 97:3 volume per volume (v/v) acetone/dimethyl sulfoxide (DMSO) to obtain 12× stock solutions. […] When technical materials are used, the concentrated stock solutions can be added to the spray solutions so that the final acetone and DMSO concentrations of the application solutions are 16.2% and 0.5%, respectively.
(§6) As required, additional water and/or 97:3 v/v acetone/DMSO was added to individual application solutions so that the final acetone and DMSO concentrations of the application solutions being compared were 8.1% and 0.25%, respectively
(§7) All stock solutions and applications solutions were visually inspected for compound compatibility prior to application. Spray solutions were applied to the plant material with an overhead Mandel track sprayer equipped with 8002E nozzles calibrated to deliver 187 L/ha over an application area of 0.503 square meters (m^2) at a spray height of 18 to 20 inches (46 to 50 cm) above average plant canopy height. Control plants were sprayed in the same manner with the solvent blank.
(§8) The treated plants and control plants were placed in a greenhouse as described above and watered by sub-irrigation to prevent wash-off of the test compounds. After approximately 3 weeks, the condition of the test plants as compared with that of the untreated plants was determined visually and scored on a scale of 0 to 100 percent where 0 corresponds to no injury or growth inhibition and 100 corresponds to complete kill.
(§9) Colby's equation was used to determine the herbicidal effects expected from the mixtures (Colby, S. R. Calculation of the synergistic and antagonistic response of herbicide combinations. Weeds 1967, 15, 20-22.).
(§10) The following equation was used to calculate the expected activity of mixtures containing two active ingredients, A and B: Expected=A+B−(A×B/100)

IPOHE = assay type: in vivo, Ipomoea hederacea (L.) Jacq. (ivyleaf morningglory); settings: r10-12 ester 4.38/8.75/17.5 g ae/ha alone, r13 difenoconazole 200 g ai/ha alone, r14-16 ester 4.38/8.75/17.5 + 200
Description: as §1, §2, §4, §5, §6, §7, §8, §9, §10

DIGSA = assay type: in vivo, Digitaria sanguinalis (L.) Scop. (large crabgrass)
Source text: Seeds or nutlets of the desired test plant species were planted in a soil matrix prepared by mixing aloam or sandy loam soil (e.g., 28.6 percent silt, 18.8 percent clay, and 52.6 percent sand, with a pH of about 5.8 and an organic matter content of about 1.8 percent) and calcareous grit in an 80 to 20 ratio. The soil matrix was contained in plastic pots with a volume of 1 quart and a surface area of 83.6 square centimeters (cm^2). When required to ensure good germination and healthy plants, a fungicide treatment and/or other chemical or physical treatment was applied. The plants were grown for 8-22 days in a greenhouse with an approximate 14 hour (h) photoperiod which was maintained at about 29° C. during the day and 26° C. during the night. Nutrients (Peters Excel® 15-5-15 5-Ca 2-Mg and iron chelate) were applied in the irrigation solution as needed and water was added on a regular basis. Supplemental lighting was provided with overhead metal halide 1000-Watt lamps as necessary. The plants were employed for testing when they reached the first through fourth true leaf stage.
as §2
Treatment requirements were calculated based upon the rates being tested, the concentration of active ingredient or acid equivalent in the formulation and a 12 milliliter (mL) application volume at a rate of 187 liters per hectare (L/ha).
as §4, §5, §6, §7, §3

ECHCG = assay type: in vivo, Echinochloa crus-galli (L.) P. Beauv. (barnyardgrass)
Description: as §1, §2, §4, §5, §6, §7, §8, §9, §10

[1] = r9-11 acid 5.3/10.6/21.2 g ae/ha alone, r12 difenoconazole 200 g ai/ha alone, r13-15 acid 5.3/10.6/21.2 + 200

CC1COC(Cn2cncn2)(c2ccc(Oc3ccc(Cl)cc3)cc2Cl)O1 (mixture of isomers) [Difenoconazole, cis, trans-3-chloro-4-[4-methyl-2-(1H-1,2,4-triazol-1-ylmethyl)-1,3,dioxolan-2-yl]phenyl 4-chlorophenyl ether, reference compound]
0%: Visual Weed Control (%) - 21 DAA ECHOR Obs (ECHOR) | Visual Weed Control (%)—21 DAA LEFCH Obs (LEFCH; [1]) | Visual Weed Control (%) - 21 DAA LEFCH Obs (LEFCH; r10-12 ester 4.38/8.75/17.5 g ae/ha alone, r13 difenoconazole 200 g ai/ha alone, r14-16 ester 4.38/8.75/17.5 + 200) | Visual Weed Control (%) - 21 DAA LEFCH Obs (LEFCH; r42-43 ester 16/32 g ae/ha alone, r44-46 difenoconazole 50/100/200 g ai/ha alone, r47-52 ester 16/32 at each of 50, 100, 200) | Visual Weed Control (%) - 21 DAA IPOHE Obs (IPOHE) | Visual Weed Control (%)—21 DAA DIGSA Obs (DIGSA; 21 DAA, r9-11 acid 5.3/10.6/21.2 g ae/ha alone, r12 difenoconazole 200 g ai/ha alone, r13-15 acid 5.3/10.6/21.2 + 200) | Visual Weed Control (%) - 22 DAA DIGSA Obs (DIGSA; 22 DAA, r22-24 ester 8/16/32 g ae/ha alone, r25-27 difenoconazole 50/100/200 g ai/ha alone, r28-36 ester 8/16/32 at each of 50, 100, 200) | Visual Weed Control (%)—21 DAA ECHCG Obs (ECHCG; [1]) | Visual Weed Control (%) - 21 DAA ECHCG Obs (ECHCG; r58-60 ester 8/16/32 g ae/ha alone, r61-63 difenoconazole 50/100/200 g ai/ha alone, r64-72 ester 8/16/32 at each of 50, 100, 200)
